According to patent EP1304101A1, “Composition and method for use of pyridinium derivatives in cosmetic and therapeutic applications” (Torrent Pharmaceuticals Ltd, priority 2001, dated 2003):

Experiment: Free radical scavenging activity on ABTS radical cation (absorbance at 730nm)
Format: biochemical
Description: This method measures the relative ability of free radical scavenging substances to scavenge the ABTS ^.+ i.e. 2,2-Azino-bis-(3-ethyl benzo thiazoline-6-sulfonate) radical cation as compared to a standard amount of standard or free radical scavengers antioxidants. Incubation of ABTS with Peroxidase (metmyoglobin) and hydrogen peroxide results in the production of radical cation ABTS^.+ . This species is blue- green in colour and can be detected at 730nm. Antioxidants or free radical scavengers in the added sample that causes suppression of the color to a degree that is proportional to their concentration.
• A. Phosphate Citrate Buffer (pH 5.0): 48.5ml of 0.1M citric acid with sufficient 0.2M disodium hydrogen phosphate to produce 100 ml. • B. Phosphate Buffer Saline (PBS): Dissolve 40.0g of NaCl, 1.0g of KCI, 1.0g of KH2PO4 and 3.05g of Na2HPO4 in 1 litre milli-Q water. Dilute 200ml of above solution to 1 litre with milli-Q water (pH 7.4-7.6). • C. 3µM stock solution of Peroxidase was prepared in phosphate buffer saline pH 7.4(PBS). • D. 1.08 mM stock solution of Hydrogen peroxide was prepared in phosphate buffer saline pH 7.4 (PBS).
1 tablet (10mg) was dissolved in phosphate citrate buffer (pH 5.0).
5.0ml of ABTS stock solution was diluted with PBS to 20 ml.
320 µg of the enzyme was dissolved in 2.5 ml of PBS.
12µl of Hydrogen Peroxide (30%w/v) was diluted to 100ml with PBS.
0.1mM of stock solution of the drug was prepared which was serially diluted in PBS to get solutions of different concentrations.
To 18ml of ABTS stock solution, 100µl of Horseradish Peroxidase stock solution was added.
As soon as 1.5 ml of hydrogen peroxide solution was added to the above solution, blue-green colour of the ABTS radicals appeared. This solution was incubated at 30°C for 30 min.
980µl of ABTS radical stock solution was added to an eppendorf tube. To it was added 100µl of various PBS solution.
980µl of ABTS radical stock solutions were added to different eppendorf tubes. To it were added 100µl of various concentrations of drug solution.
The absorbance of control and test samples was recorded immediately at 730nm taking PBS as blank.
Calculation: The percent antioxidant activity was calculated according to the formula: % Antioxidant activity = [O.D of test sample/O.D of control*100]-100.

SMILES	Relative Free Radical Scavenging Activity(%) on ABTS (11.5µM) [%]	Relative Free Radical Scavenging Activity(%) on ABTS (23.0µM) [%]	Relative Free Radical Scavenging Activity(%) on ABTS (46.0µM) [%]	Relative Free Radical Scavenging Activity(%) on ABTS (92.5µM) [%]	Relative Free Radical Scavenging Activity(%) on ABTS (925µM) [%]
O=C(NCCOC(=O)c1ccccc1)c1cc[n+](CC(=O)c2cccs2)cc1.[Br-] [Compound 18, 1-(2-thien-2'-yl-2-oxoethyl)-4-(2-(benzoyloxy)ethylaminocarbonyl) pyridinium bromide]	41.8	59.5	75.2	91.0	100
O=C(NCCOC(=O)c1ccccc1)c1ccc[n+](CC(=O)c2cccs2)c1.[Br-] [Compound 36, 1-(2-thien-2'-yl-2-oxoethyl)-3-[2-(benzoyloxy)ethylaminocarbonyl]-pyridinium bromide]	27.6	59.2	74.2	83.9	100
O=C(C[n+]1cccc(C(=O)NNS(=O)(=O)Cc2ccccc2)c1)c1ccccc1.[Br-] [Compound 31, 1-(2-phenyl-2-oxoethyl)-3-((phenylmethyl)sulfonyl hydrazinocarbonyl) pyridinium bromide]	41.6	57.7	66.9	99.2	100
O=C(NCCOC(=O)c1ccccc1)c1ccc[n+](CC(=O)c2ccc(Cl)cc2Cl)c1.[Br-] [Compound 8, 1-(2-(2',4'-dichlorophenyl) -2-oxoethyl) -3-(2-(benzoyloxy)ethylamino-carbonyl) pyridinium bromide]	40.8	53.7	72.6	81.2	100
O=C1CCCC(CCNNC(=O)c2ccc[n+](CC(=O)Nc3ccccc3)c2)C1.[Br-] (stereo not shown) [Compound 35, 1-(2-phenylamino-2-oxoethyl)-3-({2-(1-oxo-3-cyclohexyl)-ethyl} -hydrazinocarbonyl}-pyridinium bromide]	50.5	63.4	80.9	90.6	100
O=C(CCC1CCCCC1)NNC(=O)c1ccc[n+](CC(=O)c2cccs2)c1.[Br-] [Compound 34, 1-(2-thien-2'-yl-2-oxoethyl)-3-((2-(1-oxo-3-cyclohexyl)-ethyl)-hydrazinocarbonyl)-pyridinium bromide]	50.3	53.8	65.4	80.4	100
O=C(C[n+]1cccc(C(=O)c2ccccc2)c1)c1ccccc1.[Br-] [Compound 98, 1-(2-Phenyl-2-oxoethyl)-3-(1-phenyl-1-oxomethyl) pyridinium bromide]	7.1	26.9	51.1	78.6	99.1
CCCCNC(=O)c1ccc[n+](CC(=O)c2ccc(Cl)cc2Cl)c1.[Br-] [Compound 97, 1-(2 - (2, 4 - Dichlorophenyl) - 2-oxoethyl) - 3-(n-butylamino-carbonyl) pyridinium bromide]	16.5	27	37.8	44.5	97.8
